From EP4741386A1 (Jiangsu Yahong Meditech Co., Ltd., priority 2023, dated 2025)

Experiments:
[1] = test system: MDA-MB-436; assay: CTG experiment for cell viability (CellTiter-Glo, 96-well plate, 7 days); format: cell-based; conditions: MDA-MB-436 cells, 7 days culture with compound
Protocol: Test Example 2: CTG experiment for cell viability
• 1. Object: to screen USP1 inhibitors by a CTG assay, using a 96-well plate. • 2. Materials: • The cells used were MDA-MB-436 (manufacturer: Nanjing Cobioer Biotechnology Co., Ltd.) and cultured in DMEM medium, • CTG (CellTiter-Glo® Luminescent Cell Viability Assay kit) (Promega, Cat. No.: G7572), • 96-well plate (Corning, Cat. No.: 3610). • 3. Compounds: all compounds were dissolved in 100% DMSO to obtain 50 mM stock solutions. • 4. Experimental method: • ① Plating: The cells to be tested were spread into a 96-well plate at a certain density, with 200 µL per well, and 200 µL of cell medium was added to the blank wells. […] The cell plate with the compounds was placed in an incubator at 37°C, and further cultured for 7 days prior to detection. • ④ Assay: The substrate and the buffer of CTG kit were mixed evenly. The cell plate with the compounds in Step ③ was taken out from the incubator, and left at room temperature to equilibrate for 30 minutes. The medium containing the compounds was removed from the cell plate, 100 µL of PBS and 50 µL of CTG reagent were added to each well, shaken and mixed for 3 minutes, and then incubated for 10 minutes at room temperature. The plate was read by a BIotek microplate-reader, with a parameter set to 567 CPM. • 5. Curve fitting
It was the same as that for the enzyme.

[2] = target: T1, Recombinant human His6-USP1/His6-UAF1 complex protein (Homo sapiens, UniProt O94782); assay: In vitro inhibitory activity against USP1 (Ubiquitin Rhodamine 110 fluorescence detection, 384-well plate); format: biochemical; conditions: Ub-Rho substrate, 1 hour pre-incubation, read after 30 minutes
T1 construct: His6; purchased R&D E-568-050
Summary of the method: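 Compounds, kept as 50 mM DMSO stocks, were acoustically dispensed into modified Tris buffer. Inhibition of recombinant human His6-USP1/His6-UAF1 was read by fluorescence from cleavage of Ub-Rho110 substrate.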

[3] = Homo sapiens, MDA-MB-436, 168 h

T1 sequence (O94782 whole entry): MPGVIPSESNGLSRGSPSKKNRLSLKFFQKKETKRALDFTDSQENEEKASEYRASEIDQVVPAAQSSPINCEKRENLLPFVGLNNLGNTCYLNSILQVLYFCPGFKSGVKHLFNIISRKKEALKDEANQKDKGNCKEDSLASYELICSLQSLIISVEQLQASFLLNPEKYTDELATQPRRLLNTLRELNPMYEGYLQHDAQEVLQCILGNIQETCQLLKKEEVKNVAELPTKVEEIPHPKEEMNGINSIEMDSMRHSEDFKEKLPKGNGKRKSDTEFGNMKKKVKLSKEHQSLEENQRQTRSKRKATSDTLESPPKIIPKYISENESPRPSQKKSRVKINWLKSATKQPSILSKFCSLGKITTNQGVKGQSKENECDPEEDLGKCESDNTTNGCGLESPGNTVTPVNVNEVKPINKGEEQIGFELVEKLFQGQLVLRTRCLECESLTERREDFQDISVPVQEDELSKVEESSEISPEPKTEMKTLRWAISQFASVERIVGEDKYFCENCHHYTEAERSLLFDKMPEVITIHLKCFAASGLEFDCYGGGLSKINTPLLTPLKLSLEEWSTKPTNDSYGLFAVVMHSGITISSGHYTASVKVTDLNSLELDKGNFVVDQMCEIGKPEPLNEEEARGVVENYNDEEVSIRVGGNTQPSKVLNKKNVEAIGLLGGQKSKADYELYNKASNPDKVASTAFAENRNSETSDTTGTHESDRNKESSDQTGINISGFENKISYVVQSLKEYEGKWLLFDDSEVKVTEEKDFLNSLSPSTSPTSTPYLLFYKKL
T1 sequence (Q8TAF3 whole entry partner): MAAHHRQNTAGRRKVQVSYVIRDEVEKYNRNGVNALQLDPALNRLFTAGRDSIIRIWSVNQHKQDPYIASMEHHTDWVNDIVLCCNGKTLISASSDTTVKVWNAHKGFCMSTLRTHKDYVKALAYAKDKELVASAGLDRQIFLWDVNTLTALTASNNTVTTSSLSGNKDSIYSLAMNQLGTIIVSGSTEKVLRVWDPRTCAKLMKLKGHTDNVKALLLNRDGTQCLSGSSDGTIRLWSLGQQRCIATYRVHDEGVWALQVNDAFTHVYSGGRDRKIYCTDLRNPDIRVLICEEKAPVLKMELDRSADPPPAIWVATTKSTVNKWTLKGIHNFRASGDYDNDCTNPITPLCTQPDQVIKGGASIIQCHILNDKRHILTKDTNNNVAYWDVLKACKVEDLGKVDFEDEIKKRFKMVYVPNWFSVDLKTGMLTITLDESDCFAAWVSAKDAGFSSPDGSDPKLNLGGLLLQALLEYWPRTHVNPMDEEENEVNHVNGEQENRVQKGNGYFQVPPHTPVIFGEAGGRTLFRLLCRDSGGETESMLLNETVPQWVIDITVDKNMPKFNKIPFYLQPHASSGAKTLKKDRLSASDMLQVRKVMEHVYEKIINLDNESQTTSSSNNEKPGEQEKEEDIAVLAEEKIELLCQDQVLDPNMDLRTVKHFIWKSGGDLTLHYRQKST

| Structure (SMILES) | IC50 [1, 3] [nM] | IC50 [2] [nM] | IC50 [1] [nM] |
| --- | --- | --- | --- |
| COc1cnc(-c2ccccc2C(C)C)nc1N(C)CC1CCN(c2ccccn2)CC1 [Example 2, 2-(2-Isopropylphenyl)-5-methoxy-N-methyl-N-((1-(pyridin-2-yl)piperidin-4-yl)methyl)pyrimidin-4-amine] | 0.1 | 14 | – |
| COc1cnc(-c2ccccc2C(C)C)nc1N(C)Cc1ccc(-c2nc(C(F)(F)F)cn2C)cc1 [Example 3, 2-(2-Isopropylphenyl)-5-methoxy-N-methyl-N-(4-(1-methyl-4-(trifluoromethyl)-1H-imidazol-2-yl)benzyl)pyrimidin-4-amine] | 6.4 | 2.8 | – |
| COc1cnc(-c2ccccc2C(C)C)nc1NCc1ccc(-c2nc(C(F)(F)F)cn2C)cc1 [Example 4, 2-(2-Isopropylphenyl)-5-methoxy-N-(4-(1-methyl-4-(trifluoromethyl)-1H-imidazol-2-yl)benzyl)pyrimidin-4-amine] | 0.3 | 1.2 | – |
| COc1cnc(-c2ccccc2C(C)C)nc1NCC1CCN(c2ccccn2)CC1 [Example 5, 2-(2-Isopropylphenyl)-5-methoxy-N-((1-(pyridin-2-yl)piperidin-4-yl)methyl)pyrimidin-4-amine] | 113 | 7.6 | – |
| COc1cnc(-c2ccccc2C(C)C)nc1NC[C@H]1CC[C@H](c2nc(C(F)(F)F)cn2C)CC1 [Example 6, 2-(2-Isopropylphenyl)-5-methoxy-N-(((1R,4R)-4-(1-methyl-4-(trifluoromethyl)-1H-imidazol-2-yl)cyclohexyl)methyl)pyrimidin-4-amine] | 2 | 1.2 | – |
| COc1cnc(-c2ccccc2C(C)C)nc1NCc1ccc(-n2nc(C(F)(F)F)cc2C)cc1 [Example 7, 2-(2-Isopropylphenyl)-5-methoxy-N-(4-(5-methyl-3-(trifluoromethyl)-1H-pyrazol-1-yl)benzyl)pyrimidin-4-amine] | 102 | 4.5 | – |
| COc1cnc(-c2c(OC)ncnc2C2CC2)nc1N(C)Cc1ccc(-c2nc(C(F)(F)F)cn2C)cc1 [Example 8, 4'-Cyclopropyl-5,6'-dimethoxy-N-methyl-N-(4-(1-methyl-4-(trifluoromethyl)-1H-imidazol-2-yl)benzyl)-[2,5'-bipyrimidin]-4-amine] | 2.3 | 1.4 | – |
| COc1cnc(-c2ccccc2C(C)C)nc1NCc1ccc(-c2nccn3ccnc23)cc1 [Example 11, N-(4-(Imidazo[1,2-a]pyrazin-8-yl)benzyl)-2-(2-isopropylphenyl)-5-methoxypyrimidin-4-amine] | 751 | 22 | – |
| Cc1cc(C(F)(F)F)nn1-c1ccc(CN2C(=O)COc3cnc(-c4ccccc4C(C)C)nc32)cc1 [Example 15, 2-(2-Isopropylphenyl)-8-(4-(5-methyl-3-(trifluoromethyl)-1H-pyrazol-1-yl)benzyl)-6H-pyrimido[5,4-b][1,4]oxazin-7(8H)-one] | 301 | 6.8 | – |
| CC(C)c1ccccc1-c1ncc(C(F)(F)F)c(NCc2ccc(-c3nc(C(F)(F)F)cn3C)cc2)n1 [Example 17, 2-(2-Isopropylphenyl)-N-(4-(1-methyl-4-(trifluoromethyl)-1H-imidazol-2-yl)benzyl)-5-(trifluoromethyl)pyrimidin-4-amine] | 103 | 3.9 | – |
| COc1cnc(-c2c(OC)ncnc2C2CC2)nc1N(C)Cc1ccc(-c2ccccn2)cc1 [Example 19, 4'-Cyclopropyl-5,6'-dimethoxy-N-methyl-N-(4-(pyridin-2-yl)benzyl)-[2,5'-bipyrimidin]-4-amine] | 1.2 | 24 | – |
| COc1ncnc(C2CC2)c1-c1ncc2c(n1)N(CC1CCN(c3nc(C(F)(F)F)cn3C)CC1)CCO2 [Example 20, 2-(4-Cyclopropyl-6-methoxypyrimidin-5-yl)-8-((1-(1-methyl-4-(trifluoromethyl)-1H-imidazol-2-yl)piperidin-4-yl)methyl)-7,8-dihydro-6H-pyrimido[5,4-b][1,4] oxazine] | 533 | 91.5 | – |
| COc1ncnc(C2CC2)c1-c1ncc2c(n1)N(C[C@H]1CC[C@H](c3nc(C(F)(F)F)cn3C)CC1)CCO2 [Example 22, 2-(4-Cyclopropyl-6-methoxypyrimidin-5-yl)-8-(((1r,4r)-4-(1-methyl-4-(trifluoromethyl)-1H-imidazol-2-yl)cyclohexyl)methyl)-7,8-dihydro-6H-pyrimido[5,4-b][1,4]oxazine] | 209 | 24.4 | – |
| COc1cnc(-c2ccccc2C(C)C)nc1NCC12CCC(c3ccc(C(F)(F)F)cn3)(CC1)CC2 [Example 23, 2-(2-Isopropylphenyl)-5-methoxy-N-((4-(5-(trifluoromethyl)pyridin-2-yl)bicyclo[2.2.2]octan-1-yl)methyl)pyrimidin-4-amine] | 33.1 | 33 | – |
| COc1cnc(-c2c(OC)ncnc2C2CC2)nc1NCc1ccc(-n2nc(C(F)(F)F)cc2C)cc1 [Example 26, 4'-Cyclopropyl-5,6'-dimethoxy-N-(4-(5-methyl-3-(trifluoromethyl)-1H-pyrazol-1-yl)benzyl)-[2,5'-bipyrimidin]-4-amine] | 0.9 | 4.6 | – |
| COc1cnc(-c2c(OC)ncnc2C2CC2)nc1NCC12CCC(c3ccc(C(F)(F)F)cn3)(CC1)CC2 [Example 28] | 55.8 | 33 | – |
| CC(C)c1ccccc1-c1nc(NCc2ccc(-c3ccccn3)cc2)c2occc2n1 [Example 32, 2-(2-isopropylphenyl)-N-(4-(pyridin-2-yl)benzyl)furo [3,2-d] pyrimidin-4-amine] | 336 | 2.8 | – |
| CC(C)c1ccccc1-c1nc(NCc2ccc(-c3nc(C(F)(F)F)cn3C)cc2)c2occc2n1 [Example 33, 2-(2-Isopropylphenyl)-N-(4-(1-methyl-4-(trifluoromethyl)-1H-imidazol-2-yl)benzyl)furo[3,2-d]pyrimidin-4-amine] | 1.8 | 1.2 | – |
| COc1ncnc(C2CC2)c1-c1nc(NCc2ccc(-c3nc(C(F)(F)F)cn3C)cc2)c2occc2n1 [Example 35, 2-(4-Cyclopropyl-6-methoxypyrimidin-5-yl)-N-(4-(1-methyl-4-(trifluoromethyl)-1H-imidazol-2-yl)benzyl)furo[3,2-d]pyrimidin-4-amine] | 45 | 9.6 | – |
| CC(C)c1ccccc1-c1nc(NCc2ccc(-c3ccccn3)cc2)c2[nH]ccc2n1 [Example 36, 2-(2-Isopropylphenyl)-N-(4-(pyridin-2-yl)benzyl)-5H-pyrrolo[3,2-d]pyrimidin-4-amine] | 950 | 22.4 | – |
| CC(C)c1ccccc1-c1ncc(Cl)c(NCc2ccc(-c3nc(C(F)(F)F)cn3C)cc2)n1 [Example 38, 5-Chloro-2-(2-isopropylphenyl)-N-(4-(1-methyl-4-(trifluoromethyl)-1H-imidazol-2-yl)benzyl)pyrimidin-4-amine] | 13.7 | 1.1 | – |
| COc1cnc(-c2c(OC)ncnc2C2CC2)nc1N(C)C[C@H]1CC[C@H](c2nc(C(F)(F)F)cn2C2CC2)CC1 [Example S28, 4'-Cyclopropyl-N-(((1R,4R)-4-(1-cyclopropyl-4-(trifluoromethyl)-1H-imidazol-2-yl)cyclohexyl)methyl)-5,6'-dimethoxy-N-methyl-[2,5'-bipyrimidin]-4-amine] | – | – | 0.3 |
